Test results from patent publication US20250144067A1, “PERSONALIZED STARVATION THERAPY FOR CANCER” (Faeth Therapeutics, Inc., priority 2021, published 2025).
Counter-ions that a name gives are not always drawn.

What was measured:
[1] = system: NCI-H292 lung cancer cells; experiment: FDA drug screening, complete media vs cholesterol-free media without statin (TABLE 1); format: cell-based, human
[2] = system: NCI-H292 lung cancer cells; experiment: FDA drug screening, complete media vs cholesterol-free media with simvastatin (TABLE 2); format: cell-based, human; conditions: for Cholesterol-free media + simvastatin (0.04 μM) / Complete Media: NCI-H292 cells
[3] = Complete minus Cholesterol-free, >0 enhanced anti-cancer activity, about 0 neutral, <0 antagonist
[4] = NCI-H292 cells, cholesterol-free media without statin, FDA drug library screen
[5] = NCI-H292 cells, complete media, FDA drug library screen
[6] = FDA drug library screen, cholesterol-free media with simvastatin 0.04 μM
[7] = FDA drug library screen, complete media
[8] = complete media minus cholesterol-free media + simvastatin, >0 enhanced anti-cancer activity, about 0 neutral, <0 antagonist
[9] = NCI-H292 cells, cholesterol-free media without statin
[10] = complete vs cholesterol-free media, greater than 0 enhanced anti-cancer activity, about 0 neutral, below 0 antagonists
[11] = complete media vs cholesterol-free media + simvastatin (0.04 μM), >0 enhanced anti-cancer activity, about 0 neutral, <0 antagonist
[12] = FDA library drug in cholesterol-free media with simvastatin 0.04 μM
[13] = FDA library drug in complete media
[14] = Complete minus Cholesterol-free, greater than 0 enhanced anti-cancer activity, about 0 neutral, below 0 antagonist
[15] = NCI-H292 cells, FDA drug library screen, cholesterol-free media without statin
[16] = NCI-H292 cells, FDA drug library screen, complete media
[17] = drug in cholesterol-free media with simvastatin 0.04 μM
[18] = Complete minus Cholesterol-free, […]
[19] = cholesterol-free media with simvastatin 0.04 μM, FDA drug library screen (TABLE 2)
[20] = complete media, FDA drug library screen (TABLE 2)
[21] = cholesterol-free media with simvastatin 0.04 μM, cell growth value in FDA drug screen
[22] = complete media, cell growth value in FDA drug screen
[23] = complete vs cholesterol-free media, >0 enhanced anti-cancer activity, about 0 neutral, <0 antagonist
[24] = complete media minus cholesterol-free media + simvastatin (0.04 μM), >0 enhanced anti-cancer activity, about 0 neutral, <0 antagonist
[25] = Complete minus Cholesterol-free, greater than 0 enhanced anti-cancer activity, about 0 neutral, below 0 antagonists
[26] = NCI-H292 cells in cholesterol-free media without statin
[27] = NCI-H292 cells in complete media

Compound: Cc1cn([C@H]2O[C@@H](CO)[C@H](O)[C@H]2F)c(=O)[nH]c1=O [Clevudine]
- Difference [1, 3]: −0.06
- Cholesterol-free [1, 4]: 0.975
- Complete [1, 5]: 0.9127
- Cholesterol-free media + simvastatin (0.04 μM) [2, 6]: 0.7152
- Complete Media [2, 7]: 0.881
- Difference [2, 8]: 0.17

Compound: Cc1cccc(C)c1OCC(=O)N[C@@H](Cc1ccccc1)[C@@H](O)C[C@H](Cc1ccccc1)NC(=O)[C@H](C(C)C)N1CCCNC1=O [Lopinavir]
- Cholesterol-free [1, 9]: 1.281
- Complete ([1]; NCI-H292 cells, complete media): 0.8723
- Difference [1, 10]: −0.41
- Cholesterol-free media + simvastatin (0.04 μM) [2, 6]: 1.549
- Complete Media [2, 7]: 1.393
- Difference [2, 11]: −0.16

Compound: CCOC(=O)c1ncn2c1CN(C)C(=O)c1cc(F)ccc1-2 [Flumazenil]
- Difference [1, 3]: 0.05
- Cholesterol-free [1, 4]: 1.073
- Complete [1, 5]: 1.128
- Cholesterol-free media + simvastatin (0.04 μM) [2, 12]: 1.268
- Complete Media [2, 13]: 0.8397
- Difference [2, 11]: −0.43

Compound: CC(=O)Oc1cccc2c1C(=O)c1c(OC(C)=O)cc(C(=O)O)cc1C2=O [Diacerein]
- Difference [1, 14]: −0.13
- Cholesterol-free [1, 15]: 1.078
- Complete [1, 16]: 0.9444
- Cholesterol-free media + simvastatin (0.04 μM) [2, 17]: 1.08
- Complete Media ([2]; drug in complete media): 0.9105
- Difference [2, 11]: −0.17

Compound: Bismuth subgallate
- Difference [1, 18]: −0.19
- Cholesterol-free [1, 9]: 1.126
- Cholesterol-free media + simvastatin (0.04 μM) [2, 19]: 1.033
- Complete Media [2, 20]: 0.9832
- Difference ([2]; complete media minus cholesterol-free media + simvastatin (0.04 μM), […]): −0.05

Compound: O.Sc1ncnc2nc[nH]c12 [6-Mercaptopurine hydrate]
- Difference [1, 18]: −0.11
- Cholesterol-free [1, 15]: 0.3886
- Complete [1, 16]: 0.2796
- Cholesterol-free media + simvastatin (0.04 μM) [2, 17]: 0.9123
- Complete Media ([2]; drug in complete media): 0.7458
- Difference ([2]; complete media vs cholesterol-free media + simvastatin (0.04 μM), […]): −0.17

Compound: c1ccc2c(c1)Sc1ccccc1N2CC1CN2CCC1CC2 (stereo not shown) [Mequitazine]
- Cholesterol-free [1, 9]: 1.704
- Complete ([1]; NCI-H292 cells, complete media): 1.338
- Difference [1, 10]: −0.37
- Cholesterol-free media + simvastatin (0.04 μM) [2, 21]: 0.8559
- Complete Media [2, 22]: 0.9842
- Difference [2, 8]: 0.13

Compound: CCCCC1C(=O)N(c2ccccc2)N(c2ccc(O)cc2)C1=O (stereo not shown) [Oxyphenbutazone]
- Difference [1, 14]: −0.11
- Cholesterol-free [1, 15]: 1.282
- Cholesterol-free media + simvastatin (0.04 μM) [2, 12]: 1.844
- Complete Media [2, 13]: 1.056
- Difference [2, 11]: −0.79

Compound: CCc1nc(C(N)=O)c(Nc2ccc(N3CCC(N4CCN(C)CC4)CC3)c(OC)c2)nc1NC1CCOCC1 [Gilteritinib]
- Cholesterol-free [1, 4]: 0.2961
- Complete [1, 5]: 0.7497
- Difference [1, 23]: 0.45
- Cholesterol-free media + simvastatin (0.04 μM) [2, 19]: 0.4196
- Complete Media [2, 20]: 0.3685
- Difference [2, 24]: −0.05

Compound: O=[N+]([O-])c1ccc(O)c2ncccc12 [Nitroxoline]
- Cholesterol-free [1, 4]: 0.8448
- Complete [1, 5]: 1.027
- Difference [1, 23]: 0.18
- Cholesterol-free media + simvastatin (0.04 μM) [2, 6]: 1.871
- Complete Media [2, 7]: 1.743
- Difference [2, 11]: −0.13

Compound: C[C@@H]1C[C@H]2[C@@H]3CCC4=CC(=O)C=C[C@]4(C)[C@@]3(F)[C@@H](O)C[C@]2(C)[C@@]1(O)C(=O)COP(=O)([O-])[O-].[Na+].[Na+] [Dexamethasone phosphate disodium]
- Difference [1, 3]: −0.02
- Cholesterol-free [1, 4]: 0.7426
- Complete [1, 5]: 0.7227
- Cholesterol-free media + simvastatin (0.04 μM) [2, 6]: 0.6625
- Complete Media [2, 7]: 1.229
- Difference [2, 8]: 0.57

Compound: Cc1ncc([N+](=O)[O-])n1CC(O)CN1CCOCC1 (stereo not drawn) [Morinidazole (R enantiomer)]
- Difference [1, 3]: −0.04
- Cholesterol-free [1, 4]: 1.104
- Complete [1, 5]: 1.064
- Cholesterol-free media + simvastatin (0.04 μM) [2, 6]: 1.178
- Complete Media [2, 7]: 1.022
- Difference [2, 11]: −0.16

Compound: Cc1cccc(Cc2c[nH]cn2)c1C [Detomidine (hydrochloride)]
- Difference [1, 25]: −0.47
- Cholesterol-free [1, 26]: 1.106
- Complete [1, 27]: 0.6322
- Cholesterol-free media + simvastatin (0.04 μM) [2, 6]: 1.019
- Complete Media [2, 7]: 0.9319
- Difference [2, 11]: −0.09

Compound: OC(Cn1cncn1)(Cn1cncn1)c1ccc(F)cc1F [Fluconazole]
- Cholesterol-free [1, 9]: 1.23
- Complete ([1]; NCI-H292 cells, complete media): 0.8337
- Difference [1, 10]: −0.40
- Cholesterol-free media + simvastatin (0.04 μM) [2, 12]: 1.268
- Complete Media [2, 13]: 0.9392
- Difference [2, 11]: −0.33

Compound: CCC(C)(C)c1ccc(CC(C)CN2C[C@@H](C)O[C@@H](C)C2)cc1 (stereo partly shown) [Amorolfine (hydrochloride)]
- Cholesterol-free [1, 9]: 1.233
- Complete ([1]; NCI-H292 cells, complete media): 0.8449
- Difference [1, 10]: −0.39
- Cholesterol-free media + simvastatin (0.04 μM) [2, 6]: 0.4078
- Complete Media [2, 7]: 1.021
- Difference [2, 8]: 0.61

Compound: CN(C/C=C/C#CC(C)(C)C)Cc1cccc2ccccc12 [Terbinafine hydrochloride]
- Difference [1, 25]: −0.57
- Cholesterol-free [1, 26]: 1.793
- Complete [1, 27]: 1.222
- Cholesterol-free media + simvastatin (0.04 μM) [2, 6]: 1.241
- Complete Media [2, 7]: 1.124
- Difference [2, 11]: −0.12

Compound: CN1C[C@H](CNC(=O)OCc2ccccc2)C[C@@H]2c3cccc4c3c(cn4C)C[C@H]21 [Metergoline]
- Cholesterol-free [1, 9]: 1.165
- Complete ([1]; NCI-H292 cells, complete media): 0.7326
- Difference [1, 10]: −0.43
- Cholesterol-free media + simvastatin (0.04 μM) [2, 21]: 0.7892
- Complete Media [2, 22]: 0.8668
- Difference [2, 8]: 0.08

Compound: N#Cc1ccc2c(c1)N(CCCN1CCC(O)CC1)c1ccccc1S2 [Pericyazine]
- Difference [1, 14]: −0.09
- Cholesterol-free [1, 15]: 0.9265
- Complete [1, 16]: 0.8353
- Cholesterol-free media + simvastatin (0.04 μM) [2, 19]: 1.378
- Complete Media [2, 20]: 1.353
- Difference [2, 24]: −0.02

Compound: Quetiapine (hemifumarate)
- Difference [1, 3]: −0.22
- Cholesterol-free [1, 9]: 0.9339
- Complete ([1]; NCI-H292 cells, complete media): 0.7112
- Cholesterol-free media + simvastatin (0.04 μM) [2, 6]: 0.6141
- Complete Media [2, 7]: 0.8428
- Difference [2, 8]: 0.23

Compound: CCCSc1nc(N[C@@H]2C[C@H]2c2ccc(F)c(F)c2)c2nnn([C@@H]3C[C@H](OCCO)[C@@H](O)[C@H]3O)c2n1 [Ticagrelor]
- Difference [1, 25]: −0.72
- Cholesterol-free [1, 26]: 1.589
- Complete [1, 27]: 0.8706
- Cholesterol-free media + simvastatin (0.04 μM) [2, 6]: 0.854
- Complete Media [2, 7]: 1.275
- Difference [2, 8]: 0.42

Compound: Cc1noc(NS(=O)(=O)c2ccc(N)cc2)c1C [Sulfisoxazole]
- Cholesterol-free [1, 9]: 1.273
- Complete ([1]; NCI-H292 cells, complete media): 0.8703
- Difference [1, 10]: −0.40
- Cholesterol-free media + simvastatin (0.04 μM) [2, 6]: 1.12
- Complete Media [2, 7]: 1.045
- Difference [2, 11]: −0.08

Compound: NC(=O)Cc1cccc(C(=O)c2ccccc2)c1N [Nepafenac]
- Difference [1, 25]: −0.71
- Cholesterol-free [1, 26]: 1.612
- Complete [1, 27]: 0.8984
- Cholesterol-free media + simvastatin (0.04 μM) [2, 19]: 1.737
- Complete Media [2, 20]: 1.699
- Difference [2, 24]: −0.04

Compound: CC(C(=O)O)c1ccc(CC2CCCC2=O)cc1 (stereo not shown) [Loxoprofen (sodium)]
- Difference [1, 3]: −0.22
- Cholesterol-free [1, 9]: 0.9775
- Complete ([1]; NCI-H292 cells, complete media): 0.7554
- Cholesterol-free media + simvastatin (0.04 μM) [2, 6]: 1.087
- Complete Media [2, 7]: 1.62
- Difference [2, 8]: 0.53
